# Measurements taken from US20260098058A1, “COMPOUND - DIAGNOSTIC MARKER FOR OVARIAN CANCER, METHOD FOR DETECTING ENZYMATIC ACTIVITY, METHOD FOR DIAGNOSIS OF OVARIAN CANCER, KIT COMPRISING THE COMPOUND, USES OF THE COMPOUND AND METHOD FOR THE TREATMENT OF OVARIAN CANCER” (Urteste S.A., priority 2022, published 2026).
# Several values for one entry are separate records, joined by “and”; a condition that tells them apart may be missing. Equal values may be shown once. Entries after “also recorded” stand apart in the source; their conditions may differ. Starred links: 1 amine or outer side, 2 acyl side, 3 side chain; linkers in the order of their positions; H or OH if unused. Non-standard residues stand in square brackets, D forms with d. No end group written: not given here. Benzoyl(5-NH,2-NO2) = O=C(c1cc(N[*:1])ccc1[N+](=O)[O-])[*:2]; 2Abz = Nc1ccccc1C(=O)O
# Legend:
# [1] = test system: urine samples from subjects with ovarian cancer or another neoplastic disease; experiment: Selectivity of substrate cleavage by cancer type (urine samples); format: biochemical, human; details: intestine, kidney, prostate, pancreas, stomach, lung, uterine body and liver cancer samples (FIG. 3)
# Text: Arabic numerals indicate the numbers of given cancer types. The samples tested for each type of cancer were derived from 20 different patients for each of the tested cancers. The results are mean values for given cancer types.
# (§1) The activity of the novel compounds according to the invention was studied in a group of 20 subjects diagnosed with ovarian cancer using the representative compound according to the invention. […] The remaining compounds according to the invention are characterized by the analogous mechanism of action. For this purpose, the representative compound according to the invention, ABZ^1-Asp^2-Thr^3-Phe^4-Ile^5-NH2, was dissolved in dimethyl sulfoxide (at a concentration of 0.5 mg/mL) and then […] of the solution was mixed with […] of a buffer (200 mM Tris-HCl, pH 8.0) and […] of urine from a subject suffering from ovarian cancer. The measurement was performed on a 96-well plate designed for measuring absorbance and each sample was analysed in triplicate at the temperature of 37° C. The duration of the measurement was 60 minutes. During the measurement, the wavelength characteristic for the chromophore (ANB-NH2) being released was monitored at the wavelength 405 nm (range 380-430 nm).
# Furthermore, the dependence of the cleavage selectivity of the substrate, i.e. the compound according to the invention, on the cancer type being examined, was studied. […]
# [2] = test system: enzyme(s) in the studied material; experiment: Dependence of substrate hydrolysis on reaction pH; format: biochemical; details: FIG. 4
# Description: Furthermore, measurements concerning the dependence of the proteolytic activity of the representative compound according to the invention on the reaction pH were performed.
# [3] = test system: urine samples taken from healthy persons (without a cancer diagnosis); experiment: Absorbance measurement of substrate hydrolysis in urine from healthy subjects; format: biochemical, human; details: for Results of absorbance analysis (rate of hydrolysis of the substrate): 405 nm, 37° C., 60 minutes, pH 8.0, triplicate
# [4] = test system: enzymatic (proteolytic) activity in urine from a subject suffering from ovarian cancer; experiment: Absorbance measurement of substrate hydrolysis in urine from subjects with ovarian cancer; format: biochemical, human; details: for Results of absorbance analysis (rate of hydrolysis of the substrate): 405 nm, 37° C., 60 minutes, pH 8.0, triplicate
# Description: as §1
# [5] = test system: urine taken from a person diagnosed with ovarian cancer; experiment: RP HPLC analysis of substrate cleavage in urine; format: biochemical, human; details: randomly selected urine sample from a person diagnosed with ovarian cancer (FIG. 1)
substance,measurement,setting,value
"ABZ-Asp-Thr-Phe-Ile-ANB-NH2 ([2Abz]DTFI-{Benzoyl(5-NH,2-NO2)-NH2})",cleavage / increase in absorbance with samples of other cancers,[1],is not subject to cleavage
same,dependence of the hydrolysis level of the substrate on pH,[2],maximum activity at alkaline pH
same,increase in absorbance within the diagnostic range,[3]; 20 urine samples from healthy subjects (Z21 to Z40),no increase in absorbance; also recorded: does not lead to an increase in absorbance
same,Results of absorbance analysis (rate of hydrolysis of the substrate),"[3]; urine sample Z21, healthy subject",0.000000
same,Results of absorbance analysis (rate of hydrolysis of the substrate),"[3]; urine sample Z22, healthy subject",0.000000
same,Results of absorbance analysis (rate of hydrolysis of the substrate),"[3]; urine sample Z23, healthy subject",0.000000
same,Results of absorbance analysis (rate of hydrolysis of the substrate),"[3]; urine sample Z24, healthy subject",0.000000
same,Results of absorbance analysis (rate of hydrolysis of the substrate),"[3]; urine sample Z25, healthy subject",0.000000
same,Results of absorbance analysis (rate of hydrolysis of the substrate),"[3]; urine sample Z26, healthy subject",0.000000
same,Results of absorbance analysis (rate of hydrolysis of the substrate),"[3]; urine sample Z27, healthy subject",0.000000
same,Results of absorbance analysis (rate of hydrolysis of the substrate),"[3]; urine sample Z28, healthy subject",0.000000
same,Results of absorbance analysis (rate of hydrolysis of the substrate),"[3]; urine sample Z29, healthy subject",0.000000
same,Results of absorbance analysis (rate of hydrolysis of the substrate),"[3]; urine sample Z30, healthy subject",0.000000
same,Results of absorbance analysis (rate of hydrolysis of the substrate),"[3]; urine sample Z31, healthy subject",0.000000
same,Results of absorbance analysis (rate of hydrolysis of the substrate),"[3]; urine sample Z32, healthy subject",0.000000
same,Results of absorbance analysis (rate of hydrolysis of the substrate),"[3]; urine sample Z33, healthy subject",0.000000
same,Results of absorbance analysis (rate of hydrolysis of the substrate),"[3]; urine sample Z34, healthy subject",0.000000
same,Results of absorbance analysis (rate of hydrolysis of the substrate),"[3]; urine sample Z35, healthy subject",0.000000
same,Results of absorbance analysis (rate of hydrolysis of the substrate),"[3]; urine sample Z36, healthy subject",0.000000
same,Results of absorbance analysis (rate of hydrolysis of the substrate),"[3]; urine sample Z37, healthy subject",0.000000
same,Results of absorbance analysis (rate of hydrolysis of the substrate),"[3]; urine sample Z38, healthy subject",0.000000
same,Results of absorbance analysis (rate of hydrolysis of the substrate),"[3]; urine sample Z39, healthy subject",0.000000
same,Results of absorbance analysis (rate of hydrolysis of the substrate),"[3]; urine sample Z40, healthy subject",0.000000
same,colour intensity of the solution (absorbance in time),[4]; all urine samples from persons diagnosed with ovarian cancer (samples 1-20),increased with time
same,efficiency of cleavage of the substrate between samples,[4]; samples 3 and 17 compared with samples 1 or 13,less efficiently
same,Results of absorbance analysis (rate of hydrolysis of the substrate),"[4]; urine sample 1, ovarian cancer",0.0066 and 0.006 and 0.0065
same,Results of absorbance analysis (rate of hydrolysis of the substrate),"[4]; urine sample 2, ovarian cancer",0.052 and 0.042 and 0.051
same,Results of absorbance analysis (rate of hydrolysis of the substrate),"[4]; urine sample 3, ovarian cancer",0.0087 and 0.0088 and 0.0086
same,Results of absorbance analysis (rate of hydrolysis of the substrate),"[4]; urine sample 4, ovarian cancer",0.0069 and 0.0051 and 0.0067
same,Results of absorbance analysis (rate of hydrolysis of the substrate),"[4]; urine sample 5, ovarian cancer",0.044 and 0.038 and 0.042
same,Results of absorbance analysis (rate of hydrolysis of the substrate),"[4]; urine sample 6, ovarian cancer",0.037 and 0.022 and 0.028
same,Results of absorbance analysis (rate of hydrolysis of the substrate),"[4]; urine sample 8, ovarian cancer",0.014 and 0.022 and 0.015
same,Results of absorbance analysis (rate of hydrolysis of the substrate),"[4]; urine sample 9, ovarian cancer",0.0088 and 0.0101 and 0.0092
same,Results of absorbance analysis (rate of hydrolysis of the substrate),"[4]; urine sample 10, ovarian cancer",0.009 and 0.0093 and 0.0085
same,Results of absorbance analysis (rate of hydrolysis of the substrate),"[4]; urine sample 11, ovarian cancer",0.0123 and 0.0112 and 0.0145
same,Results of absorbance analysis (rate of hydrolysis of the substrate),"[4]; urine sample 12, ovarian cancer",0.0216 and 0.021 and 0.0199
same,Results of absorbance analysis (rate of hydrolysis of the substrate),"[4]; urine sample 13, ovarian cancer",0.0045 and 0.0052 and 0.0048
same,Results of absorbance analysis (rate of hydrolysis of the substrate),"[4]; urine sample 14, ovarian cancer",0.005 and 0.0061 and 0.0058
same,Results of absorbance analysis (rate of hydrolysis of the substrate),"[4]; urine sample 15, ovarian cancer",0.0017 and 0.0015 and 0.0021
same,Results of absorbance analysis (rate of hydrolysis of the substrate),"[4]; urine sample 16, ovarian cancer",0.0079 and 0.0084 and 0.0072
same,Results of absorbance analysis (rate of hydrolysis of the substrate),"[4]; urine sample 18, ovarian cancer",0.0073 and 0.0068 and 0.0075
same,Results of absorbance analysis (rate of hydrolysis of the substrate),"[4]; urine sample 19, ovarian cancer",0.055 and 0.051 and 0.048
same,Results of absorbance analysis (rate of hydrolysis of the substrate),"[4]; urine sample 20, ovarian cancer",0.0077 and 0.0075 and 0.0081
same,cleavage products by RP HPLC,[5],cleaves into the peptide fragment ABZ-Asp-Thr-Phe-Ile-OH and the chromophore group of the compound (ANB-NH2)
